For one cell line, relative viability results are on record in the supplement of paper PMC10307832.

Experiment in all cases: relative viability (nuclei count vs DMSO), 5 days (fraction); higher = more cells survive
Compound in assay [1]: C1=CC=C2C(=C1)C=CC(=C2SSC3=C(C=CC4=CC=CC=C43)O)O [IPA-3] + CC(=O)c1c(C)c2cnc(Nc3ccc(N4CCNCC4)cn3)nc2n(C2CCCC2)c1=O [Palbociclib] (partner 0.5 µM)
The method in brief:
(§1)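 Lung cancer cell lines, seeded in 1536-well plates, were treated the following day by pin tool with a single drug or with five library-drug doses (not always all listed) in √10 steps on top of a fixed anchor-drug dose. Cells were fixed and nuclei stained in one step after 5 days, and nuclei were counted. Relative viability is the nuclei count for treated wells divided by that for vehicle wells, reported as medians of duplicate plates.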

Compound in assay [2]: Cc1ccc(-n2nc(C(C)(C)C)cc2NC(=O)Nc2ccc(OCCN3CCOCC3)c3ccccc23)cc1 [Doramapimod] + Nc1ncn([C@H]2C[C@H](O)[C@@H](CO)O2)c(=O)n1 [Decitabine] (partner 2 µM)
The gist of the method:
as §1

Compound in assay [3]: Cn1c(Nc2ccc(C(F)(F)F)cc2)nc2cc(Oc3ccnc(-c4ncc(C(F)(F)F)[nH]4)c3)ccc21 [RAF265] + CS(=O)(=O)N1CCN(Cc2cc3nc(-c4cccc5[nH]ncc45)nc(N4CCOCC4)c3s2)CC1 [Pictilisib] (partner 1 µM)
The gist of the method: as §1

Compound in assay [4]: Cn1c(Nc2ccc(C(F)(F)F)cc2)nc2cc(Oc3ccnc(-c4ncc(C(F)(F)F)[nH]4)c3)ccc21 [RAF265] + O=C(CCCCCCC(=O)Nc1ccccc1)NO [Vorinostat] (partner 1 µM)
The gist of the method:
as §1

For UMC-11, the relative viability in assay [1] (first compound 0.2 µM) is 0.323; in assay [1] (first compound 0.6325 µM), 0.333; in assay [1] (first compound 2 µM) it was 0.312; in assay [1] (first compound 6.325 µM), 0.328; in assay [1] (first compound 20 µM), 0.337; in assay [2] (first compound 0.02 µM) it was 0.65. The relative viability in assay [2] (first compound 0.06325 µM) amounted to 0.584; in assay [2] (first compound 0.2 µM), 0.646; in assay [2] (first compound 0.6325 µM), 0.723; in assay [2] (first compound 2 µM) it was 0.419; in assay [3] (first compound 0.01 µM) it was 0.782; in assay [3] (first compound 0.03162 µM), 0.747. In addition, the relative viability is 0.88 in assay [3] (first compound 0.1 µM); 0.822 in assay [3] (first compound 0.3162 µM); 0.644 in assay [3] (first compound 1 µM); 0.458 in assay [4] (first compound 0.01 µM); 0.4 in assay [4] (first compound 0.03162 µM); 0.343 in assay [4] (first compound 0.1 µM). In addition, the figures for the relative viability in assay [4] (first compound 0.3162 µM) and in assay [4] (first compound 1 µM) were 0.357 and 0.32, respectively.
